Source: patent US7375058B2, “Herbicidal mixtures based on 3-phenyluracils” (priority 2002, dated 2008)

Key:
Conditions in all cases: 21 days
[1] = tested on: GALAP; test: Greenhouse post-emergence herbicidal action against GALAP; assay type: in vivo, Galium aparine
Excerpt: (§1) For the post-emergence treatment, the test plants were first grown to a height of 3 to 20 cm, depending on the plant habit, and only then treated. Here, the herbicidal compositions were suspended or emulsified in water as distribution medium and sprayed using finely distributing nozzles
(§2) The respective components A and B and/or C were formulated as 10% by weight strength emulsion concentrate and introduced to the spray liquor with the amount of solvent system used for applying the active compound. In the examples, the solvent used was water.
(§3) The test period extended over 21 days. During this time, the plants were tended, and their response to the treatments with active compound was evaluated.
(§4) The evaluation for the damage caused by the chemical compositions was carried out using a scale from 0 to 100%, compared to the untreated control plants. Here, 0 means no damage and 100 means complete destruction of the plants.
(§5) In the examples below, the value E which is to be expected if the activity of the individual compounds is just additive was calculated using the method of S. R. Colby (1967) “Calculating synergistic and antagonistic responses of herbicide combinations”, Weeds 15, p. 22 ff. E=X+Y−([…]) where • X=effect in percent using active compound A at an application rate a; • Y=effect in percent using active compound B at an application rate b; • E=expected effect (in %) of A+B at application rates a+b.
(§6) If the observed effect is higher than the value E calculated according to Colby, a synergistic effect is present.

[2] = tested on: ABUTH; test: Greenhouse post-emergence herbicidal action against ABUTH; assay type: in vivo, Abutilon theophrasti
Excerpt: as §1, §2, §3, §4, §5, §6

[3] = tested on: ALOMY; test: Greenhouse post-emergence herbicidal action against ALOMY; assay type: in vivo, Alopecurus myosuroides
Excerpt: as §1, §2, §3, §4, §5, §6

[4] = tested on: BIDPI; test: Greenhouse post-emergence herbicidal action against BIDPI; assay type: in vivo, Bidens pilosa
Excerpt: as §1, §2, §3, §4, §5, §6

[5] = tested on: BRAPL; test: Greenhouse post-emergence herbicidal action against BRAPL; assay type: in vivo, Brachiaria plantaginea
Excerpt: as §1, §2, §3, §4, §5, §6

[6] = tested on: POLPE; test: Greenhouse post-emergence herbicidal action against POLPE; assay type: in vivo, Polygonum persicaria
Excerpt: as §1, §2, §3, §4, §5, §6

[7] = tested on: AVEFA; test: Greenhouse post-emergence herbicidal action against AVEFA; assay type: in vivo, Avena fatua
Excerpt: as §1, §2, §3, §4, §5, §6

[8] = tested on: ECHCG; test: Greenhouse post-emergence herbicidal action against ECHCG; assay type: in vivo, Echinochloa crus-galli
Excerpt: as §1, §2, §3, §4, §5, §6

[9] = application rate g/ha: I.14 0.49, b2.3 0.98
[10] = application rate g/ha: I.14 0.98, b2.3 1.95
[11] = application rate g/ha: I.7 1.95, b3.1 62.5
[12] = application rate g/ha: I.7 3.91, b3.1 125
[13] = application rate g/ha: I.7 1.95, b3.2 62.5
[14] = application rate g/ha: I.7 3.91, b3.2 125
[15] = application rate g/ha: I.8 0.98, b5.1 7.81
[16] = application rate g/ha: I.8 1.95, b5.1 15.63

CCO/N=C(\CC)C1=C(O)CC(c2c(C)cc(C)cc2C)CC1=O (stereo not drawn) [b1.1, tralkoxydim, reference compound]
Herbicidal action against GALAP found ([1]; application rate g/ha: I.1 1.95, b1.1 62.5): 0%
Herbicidal action against GALAP found ([1]; application rate g/ha: I.1 3.91, b1.1 125): 0%

CCCC(=NOCC(C)Oc1ccc(Cl)cc1)C1=C(O)CC(C2CCCSC2)CC1=O (stereo not drawn) [b1.2, profoxydim, reference compound]
Herbicidal action against ABUTH found ([2]; application rate g/ha: I.1 1.95, b1.2 31.25): 30%
Herbicidal action against ABUTH found ([2]; application rate g/ha: I.1 3.91, b1.2 62.5): 40%

COCc1cnc(C2=NC(C)(C(C)C)C(=O)N2)c(C(=O)O)c1 (stereo not drawn) [b2.1, imazamox, reference compound]
Herbicidal action against ALOMY found ([3]; application rate g/ha: I.8 0.49, b2.1 7.81): 40%
Herbicidal action against ALOMY found ([3]; application rate g/ha: I.8 0.98, b2.1 15.63): 70%

CCc1cnc(C2=NC(C)(C(C)C)C(=O)N2)c(C(=O)O)c1 (stereo not drawn) [b2.2, imazethapyr, reference compound]
Herbicidal action against BIDPI found ([4]; application rate g/ha: I.8 0.49, b2.2 7.81): 20%
Herbicidal action against BIDPI found ([4]; application rate g/ha: I.8 0.98, b2.2 15.63): 20%

COc1cc(OC)nc(NC(=O)NS(=O)(=O)c2ncccc2C(=O)N(C)C)n1 [b2.3, nicosulfuron, reference compound]
Herbicidal action against BRAPL found [5, 9]: 70%
Herbicidal action against BRAPL found [5, 10]: 70%
Herbicidal action against ALOMY found [3, 9]: 50%
Herbicidal action against ALOMY found [3, 10]: 60%

CCNc1nc(Cl)nc(NC(C)C)n1 [b3.1, atrazine, reference compound]
Herbicidal action against POLPE found [6, 11]: 50%
Herbicidal action against POLPE found [6, 12]: 60%
Herbicidal action against AVEFA found [7, 11]: 0%
Herbicidal action against AVEFA found [7, 12]: 0%

CN(C)C(=O)Nc1ccc(Cl)c(Cl)c1 [b3.2, diuron, reference compound]
Herbicidal action against BRAPL found [5, 13]: 25%
Herbicidal action against BRAPL found [5, 14]: 60%
Herbicidal action against ECHCG found [8, 13]: 15%
Herbicidal action against ECHCG found [8, 14]: 20%

CC(C)c1ccc(NC(=O)N(C)C)cc1 [b3.3, isoproturon, reference compound]
Herbicidal action against ABUTH found ([2]; application rate g/ha: I.7 0.98, b3.3 31.25): 0%
Herbicidal action against ABUTH found ([2]; application rate g/ha: I.7 1.95, b3.3 62.5): 40%

C[n+]1ccc(-c2cc[n+](C)cc2)cc1 [b3.4, paraquat, reference compound]
Herbicidal action against ABUTH found ([2]; application rate g/ha: I.7 0.98, b3.4 31.25): 0%
Herbicidal action against ABUTH found ([2]; application rate g/ha: I.7 1.95, b3.4 62.5): 40%

CCOC(=O)/C(Cl)=C/c1cc(N2C(=O)C3=C(CCCC3)C2=O)ccc1Cl [b4.1, cinidon-ethyl, reference compound]
Herbicidal action against POLPE found ([6]; application rate g/ha: I.1 0.49, b4.1 0.98): 40%
Herbicidal action against POLPE found ([6]; application rate g/ha: I.1 0.98, b4.1 1.95): 50%

O=C(Nc1ccc(F)cc1)c1cccc(Oc2cccc(C(F)(F)F)c2)n1 [b5.1, picolinafen, reference compound]
Herbicidal action against POLPE found [6, 15]: 30%
Herbicidal action against POLPE found [6, 16]: 40%
Herbicidal action against BRAPL found [5, 15]: 20%
Herbicidal action against BRAPL found [5, 16]: 20%
